This is an account of results in publication PMC12396409, “Screening and hit evaluation of a microbial metabolite library against the pathogenic Plasmodium falciparum and Toxoplasma gondii parasites” (International Journal for Parasitology: Drugs and Drug …, 2025).

Structures can show the parent of a compound that is named as a salt. Where two headings read alike, the source gives them in different places.

The subject of assay [1] is P. falciparum 3D7 parasites. The assay is described as follows: P. falciparum growth inhibition assay, 2-cycle (120 h treatment), delayed-death screen and dose-response. The format is cell-based, Plasmodium falciparum. Particulars: P. falciparum, 120 h, parasite screen 2 μg/mL, % growth; for activity at 2 µg/mL: Plasmodium falciparum, 3D7.
For assay [2], the system named is P. falciparum 3D7 parasites. The assay is described as follows: P. falciparum growth inhibition assay, 1-cycle (72 h treatment), SYBR DNA staining (library screen at 2 μg/mL and dose-response). Particulars: P. falciparum, 72 h, parasite screen 2 μg/mL, % growth; for activity at 2 µg/mL: Plasmodium falciparum, 3D7. Format: cell-based, Plasmodium falciparum.
The test system of assay [3] is T. gondii RH strain (RH-Tub-eYFP) tachyzoites. The assay is described as follows: microbe, parasite or virus in culture. Format: cell-based, Toxoplasma gondii.
The mark [4] stands for this setting: T. gondii, 72 h, parasite screen 2 μg/mL, % growth, replicate 1.
The mark [5] stands for this setting: T. gondii, 72 h, parasite screen 2 μg/mL, % growth, replicate 2.
Setting [6] is: replicate 1, read-out: Pf_120h_%Growth_Rep1.
[7] abbreviates: replicate 2, read-out: Pf_120h_%Growth_Rep2.
[8] abbreviates: replicate 1, read-out: Pf_72h_%Growth_Rep1.
Where [9] appears, read: replicate 2, read-out: Pf_72h_%Growth_Rep2.
Where [10] appears, read: T. gondii, 72 h, 2 μg/mL; values are growth (% of control).

`COC(=O)[C@H]1NC(=O)[C@H]2NC(=O)[C@H](NC(=O)[C@@H]3NC(=O)[C@H]4NC(=O)[C@H](NC(=O)[C@H](N)c5ccc(O)c(c5)Oc5cc4cc(O)c5C)[C@H](O)c4ccc(cc4)Oc4cc3cc(c4O[C@@H]3O[C@H](COC4O[C@@H](C)[C@H](O)[C@@H](O)[C@H]4O)[C@@H](O)[C@H](O)[C@H]3O[C@@H]3O[C@@H](CO)[C@H](O)[C@@H](O)[C@H]3O[C@@H]3OC[C@@H](O)[C@@H](O)[C@@H]3O)Oc3ccc(cc3)[C@H]2O[C@@H]2C[C@@H](N)[C@@H](O)[C@H](C)O2)c2ccc(O)c(c2)-c2c(O[C@@H]3O[C@H](CO)[C@@H](O)[C@H](O)[C@@H]3O)cc(O)cc21` (stereo partly drawn) [Ristocetin A sulfate] had a Pf_120h_%Growth_Rep1 in assay [1] (replicate 1) of 82.07%. This molecule also gave a Pf_120h_%Growth_Rep2 in assay [1] (replicate 2) of 109.30%. Also, the Pf_72h_%Growth_Rep1 in assay [2] (replicate 1) is listed as 85.98%. In addition, the Pf_72h_%Growth_Rep2 in assay [2] (replicate 2) is reported as 111.61%. Also, in assay [3] (setting [4]), the Tg_72h_%Growth_Rep1 is on record as 119.41%. In assay [3] (setting [5]), this molecule returned a Tg_72h_%Growth_Rep2 of 85.51%.
Consider `CCCCCCCCCCCC[C@@H](C(=O)O)[C@H](C)C(=O)O` [Roccellic acid], for which, in assay [1] (replicate 1), the Pf_120h_%Growth_Rep1 turned out to be 69.96%. Moreover, the Pf_120h_%Growth_Rep2 in assay [1] (replicate 2) stood at 129.33%. This molecule also showed a Pf_72h_%Growth_Rep1 in assay [2] (replicate 1) of 81.49%. For the same molecule, the Pf_72h_%Growth_Rep2 in assay [2] (replicate 2) amounted to 118.80%. This molecule displayed a Tg_72h_%Growth_Rep1 in assay [3] (setting [4]) of 114.12%. In assay [3] (setting [5]), this molecule registered a Tg_72h_%Growth_Rep2 of 89.45%.
Turning to `CN(C)[C@@H]1C(O)=C(C(=O)NCN2CCCC2)C(=O)[C@@]2(O)C(O)=C3C(=O)c4c(O)cccc4[C@@](C)(O)[C@H]3C[C@@H]12` [Rolitetracycline], the activity at 2 µg/mL in assay [1] (setting [6]) is 82.2%; in assay [1] (setting [7]) it was 135%; in assay [2] (setting [8]), 87.6%; in assay [2] (setting [9]), 70%. In addition, the percent parasite growth at 2 µg/mL in assay [3] (Toxoplasma gondii, 72 h, T. gondii, 72 h, parasite screen 2 μg/mL, % growth, replicate 1; read-out: Tg_72h_%Growth_Rep1) is 105%; in assay [3] (Toxoplasma gondii, 72 h, T. gondii, 72 h, parasite screen 2 μg/mL, % growth, replicate 2; read-out: Tg_72h_%Growth_Rep2) it was 84.7%.
As for `C=CC(C)(C)[C@@]12C[C@H]3C(=O)N/C(=C/c4c[nH]cn4)C(=O)N3[C@@H]1Nc1ccccc12` [Roquefortine C], the activity at 2 µg/mL was determined as 73.1% in assay [1] (setting [6]), 98.8% in assay [1] (setting [7]), 76.2% in assay [2] (setting [8]) and 78.8% in assay [2] (setting [9]). For the same molecule, the percent parasite growth at 2 µg/mL in assay [3] (Toxoplasma gondii; T. gondii, 72 h, parasite screen 2 μg/mL, % growth, replicate 1; read-out: Tg_72h_%Growth_Rep1) was 112%; in assay [3] (Toxoplasma gondii; T. gondii, 72 h, parasite screen 2 μg/mL, % growth, replicate 2; read-out: Tg_72h_%Growth_Rep2), 89.5%.
Regarding `C=CC(C)(C)c1[nH]cnc1/C=C1/NC(=O)[C@@H]2C[C@@]3(C(C)(C)C=C)c4ccccc4N[C@H]3N2C1=O` [Roquefortine E], the Pf_120h_%Growth_Rep1 in assay [1] (replicate 1) is 14.59%. For the same molecule, the Pf_120h_%Growth_Rep2 in assay [1] (replicate 2) is given as 17.38%. In assay [2] (replicate 1), this molecule showed a Pf_72h_%Growth_Rep1 of 11.66%. Besides, the Pf_72h_%Growth_Rep2 in assay [2] (replicate 2) was 6.85%. The molecule also came in with a Tg_72h_%Growth_Rep1 in assay [3] (setting [4]) of 75.06%. Further, the Tg_72h_%Growth_Rep2 in assay [3] (setting [5]) is recorded as 97.61%.
Turning to `Cc1cc2nc3c(=O)[nH]c(=O)nc-3n(C[C@H](O)[C@H](O)[C@H](O)CO)c2cc1N(C)C` [Roseoflavin], the Pf_120h_%Growth_Rep1 in assay [1] (replicate 1) is on record as 4.42%. This molecule registered a Pf_120h_%Growth_Rep2 in assay [1] (replicate 2) of 7.07%. The Pf_72h_%Growth_Rep1 in assay [2] (replicate 1) came to 11.70%. The same molecule registered a Pf_72h_%Growth_Rep2 in assay [2] (replicate 2) of 10.95%. In assay [3] (T. gondii, 72 h, 2 μg/mL; mean of both replicates, growth (% of control)), this molecule gave a Mean of 28.14. Also, in assay [3] (setting [10]), the “Replicate 1” value amounted to 40.04 and the “Replicate 2” value was found to be 16.23. Besides, in assay [3] (setting [4]), the Tg_72h_%Growth_Rep1 was 40.04%. In assay [3] (setting [5]), this molecule returned a Tg_72h_%Growth_Rep2 of 16.23%.
For `Cc1cc(O)c2c(c1)C(=O)C13C(=C2O)C(=O)C2C(O)C1C1C(O)C3C(=O)C3=C(O)c4c(O)cc(C)cc4C(=O)C321` (stereo not drawn) [Rugulosin + form], the Pf_120h_%Growth_Rep1 in assay [1] (replicate 1) is listed as 82.55%. The Pf_120h_%Growth_Rep2 in assay [1] (replicate 2) came out at 131.94%. Further, the Pf_72h_%Growth_Rep1 in assay [2] (replicate 1) turned out to be 87.73%. This molecule also displayed a Pf_72h_%Growth_Rep2 in assay [2] (replicate 2) of 120.80%. The molecule further gave a Tg_72h_%Growth_Rep1 in assay [3] (setting [4]) of 114.00%. The molecule further gave a Tg_72h_%Growth_Rep2 in assay [3] (setting [5]) of 82.13%.
In assay [1] (replicate 1), `Cc1cc(O)c2c(c1)C(=O)C13C(=C2O)C(=O)C2C(O)C1C1C(O)C3C(=O)C3=C(O)c4c(O)cc(C)cc4C(=O)C321` (stereo not drawn) [Rugulosin - form] had a Pf_120h_%Growth_Rep1 of 0.79%. This molecule also displayed a Pf_120h_%Growth_Rep2 in assay [1] (replicate 2) of 8.22%. For the same molecule, the Pf_72h_%Growth_Rep1 in assay [2] (replicate 1) turned out to be 4.91%. In assay [2] (replicate 2), the Pf_72h_%Growth_Rep2 is 2.27%. In assay [3] (setting [4]), this molecule had a Tg_72h_%Growth_Rep1 of 9.47%. In assay [3] (setting [5]), this molecule gave a Tg_72h_%Growth_Rep2 of 14.48%.
